Assay results: US4465676A, “16α Halogen substituted 3,17β-dihydroxy steroidal estrogens” (priority 1980, dated 1984)

Experiments:
[1] = Stability of the radiolabelled compound on storage; format: physicochemical
Description: In several experiments the yield of ^125 I-labeled estradiol ranged from 25 to 65 percent of the incubated ^125 I. The purified radioactive iodinated compound was stored at 0° to 4° C. in a benzene-methanol mixture (95:5).

[2] = target: T1, rat uterine cytosol (estrogen receptor) (Rattus norvegicus, UniProt P06211); assay: Binding to rat uterine cytosol, dextran-coated charcoal
T1 construct: incubated with cytoplasm from the uteri of rats; from tissue; host or cells: uterine cytosol of ovariectomized rats
T1 sequence (P06211 1-600): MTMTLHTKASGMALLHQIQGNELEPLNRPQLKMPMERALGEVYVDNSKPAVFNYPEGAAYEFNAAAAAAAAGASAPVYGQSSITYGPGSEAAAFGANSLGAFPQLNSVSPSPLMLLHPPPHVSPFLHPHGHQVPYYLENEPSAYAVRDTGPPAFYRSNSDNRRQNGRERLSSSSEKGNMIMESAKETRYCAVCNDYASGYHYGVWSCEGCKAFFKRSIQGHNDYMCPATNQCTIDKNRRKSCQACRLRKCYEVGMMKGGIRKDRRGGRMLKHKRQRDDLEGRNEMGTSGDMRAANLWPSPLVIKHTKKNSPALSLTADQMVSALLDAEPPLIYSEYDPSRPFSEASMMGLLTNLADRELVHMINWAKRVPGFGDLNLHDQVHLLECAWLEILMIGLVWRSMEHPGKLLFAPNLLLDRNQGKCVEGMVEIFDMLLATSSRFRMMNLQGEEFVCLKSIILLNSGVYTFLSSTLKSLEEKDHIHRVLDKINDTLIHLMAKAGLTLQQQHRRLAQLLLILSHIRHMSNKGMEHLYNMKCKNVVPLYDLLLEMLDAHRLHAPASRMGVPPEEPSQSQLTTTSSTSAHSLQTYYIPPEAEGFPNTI
Description: Metab. […] The homogenate was centrifuged at 4000 g for 10 minutes and the resulting supernatant for 60 minutes at 150,000 g. […] Samples were incubated for 4 hours at 0° to 2° C. Free steroid was removed by addition of 250 μl of a suspension of 0.5 percent dextran-coated charcoal. The tubes were mixed and then centrifuged at […] for 10 minutes.

Rat Uterine Receptor = assay: Tissue radioactivity 6 hours after injection into castrated female rats with and without DES; format: in vivo, Sprague-Dawley rats
Description: To deterine whether 16α-[^125 I]iodoestradiol would be recognized by estrogen-responsive tissues, it was injected into castrated female rats with and without diethylstilbestrol (DES); after 6 hours the concentration of radioactivity in the uterus was compared to that in several other tissues.
Female Sprague-Dawley rats (200 to 250 g) were castrated 48 hours before subcutaneous injection of ^125 I-labeled estradiol (1×10^6 count/min) dissolved in 10 μl of ethanol and 0.2 ml of saline. Twenty minutes before the administration of the iodinated estradiol, one group of rats (N=6) were injected with 5 μg of DES dissolved first in 50 μl of ethanol and then in 0.5 ml of saline. Another group of castrated rats (N=6) were injected with 0.5 ml of 10 percent ethanol in saline before receiving the radioactive steroid. The rats were killed 6 hours later and small pieces of the tissues were weighed and counted. All values are means ± standard deviations. To determine ether extractable radioactivity, the uterus, liver, and thyroid were homogenized in methanol and filtered. The filtrate was evaporated and the resulting residue was partitioned between ether and 0.1N NaHCO3. The ethereal solution was evaporated and counted and the results are tabulated below in Table I.
Several micrograms of 16α-iodoestradiol were added to the ether extract of the uterus and the mixture was submitted to high-pressure liquid chromatography. High pressure liquid chromatography was performed on a 250 by 4.6 mm Lichrosorb Diol column (merck) with methylene chloride at a flow rate of 1 ml/min. In this system 16α-iodoestradiol is eluted in 12 minutes and 16β-bromoestradiol in 8 minutes. […] The radioactivity in the thyroid gland, approximately 2000 count/min, is probably due to the uptake of free iodide arising from the metabolism of ^125 I-labeled estradiol in vivo and is equivalent to only 0.2 percent of the injected dose.

[3] = target: T2, estrogen receptor of human mammary tumors (Homo sapiens, UniProt P03372); assay: Estrogen receptor assay in human mammary tumor cytosol; format: binding; conditions: 1.5 mg/ml protein
T2 construct: 124 and 126
T2 sequence (P03372 1-595): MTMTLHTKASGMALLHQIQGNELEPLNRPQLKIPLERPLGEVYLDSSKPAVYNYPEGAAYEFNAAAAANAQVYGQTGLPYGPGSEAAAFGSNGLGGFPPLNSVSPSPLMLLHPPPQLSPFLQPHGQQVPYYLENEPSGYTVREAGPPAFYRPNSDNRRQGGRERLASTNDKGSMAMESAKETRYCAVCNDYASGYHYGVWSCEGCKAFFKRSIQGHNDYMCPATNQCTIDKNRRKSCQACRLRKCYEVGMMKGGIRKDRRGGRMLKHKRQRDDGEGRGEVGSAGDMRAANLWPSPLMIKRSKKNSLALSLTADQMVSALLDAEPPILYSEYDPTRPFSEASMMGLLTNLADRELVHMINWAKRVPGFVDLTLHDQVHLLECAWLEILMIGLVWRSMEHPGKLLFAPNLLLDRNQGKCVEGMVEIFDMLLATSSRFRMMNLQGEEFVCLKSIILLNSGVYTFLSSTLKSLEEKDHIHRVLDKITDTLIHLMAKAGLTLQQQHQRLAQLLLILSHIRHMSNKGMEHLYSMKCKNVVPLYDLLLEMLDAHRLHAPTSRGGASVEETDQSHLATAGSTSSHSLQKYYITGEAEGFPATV
Description: Extrogen receptor human mammary tumors were kept frozen in dry ice in a pulverized form. […] The final concentration of cytosolic protein used in the assay was 1.5 mg/ml.
A pool of two different estrogen receptor-positive mammary tumors was studied.

For `C[C@]12CC[C@@H]3c4ccc(O)cc4CC[C@H]3[C@@H]1C[C@@H]([125I])[C@@H]2O` [^125 I-E2, 16α-[^125 I]iodoestra-1,3,5(10)-triene-3,17β-diol], the decomposition on storage ([1]; weeks of storage at 0° to 4° C. in benzene-methanol (95:5)) was “no signs of decomposition”, the decomposition on storage ([1]; weeks of storage of 4° C.) was “little sign of decomposition” and the “Radioactivity specifically bound, percent of added” value [2] was 56%. For the same compound, the “Radioactivity Bound without DES” value ([2]; 98 μg cytosol protein, 4 hours at 0° to 2° C., added 69,600 (125I) or 63,600 (3H) count/min) was 42,600 count/min, the Radioactivity specifically bound ([2]; bound without DES minus bound with DES) was 38,800 count/min and the “Radioactivity Bound with DES” value ([2]; with 7×10^-7 M DES (nonspecific binding)) was 3,800 count/min. For the same compound, the “nature of the radioactive material in the uterus” value (Rat Uterine Receptor; HPLC of ether extract of uterus with 16α-iodoestradiol carrier) was “unmetabolized”, the “Radioactivity, With DES” value (Rat Uterine Receptor; Heart, 5 μg DES, 6 hours) was 26 ± 7 count/min per 100 mg of tissue and the “Radioactivity, Without DES” value (Rat Uterine Receptor; Heart, 6 hours) was 23 ± 5 count/min per 100 mg of tissue. The “Radioactivity, With DES” value (Rat Uterine Receptor; Kidney, 5 μg DES, 6 hours) was 75 ± 20 count/min per 100 mg of tissue, the “Radioactivity, Without DES” value (Rat Uterine Receptor; Kidney, 6 hours) was 73 ± 33 count/min per 100 mg of tissue and the “Radioactivity, With DES” value (Rat Uterine Receptor; Liver, 5 μg DES, 6 hours) was 425 ± 105 count/min per 100 mg of tissue. For the same compound, the “Radioactivity, Without DES” value (Rat Uterine Receptor; Liver, 6 hours) was 446 ± 184 count/min per 100 mg of tissue, the “Radioactivity, With DES” value (Rat Uterine Receptor; Lung, 5 μg DES, 6 hours) was 56 ± 11 count/min per 100 mg of tissue and the “Radioactivity, Without DES” value (Rat Uterine Receptor; Lung, 6 hours) was 47 ± 23 count/min per 100 mg of tissue. For the same compound, the “Radioactivity, With DES” value (Rat Uterine Receptor; Muscle, 5 μg DES, 6 hours) was 18 ± 12 count/min per 100 mg of tissue, the “Radioactivity, Without DES” value (Rat Uterine Receptor; Muscle, 6 hours) was 33 ± 23 count/min per 100 mg of tissue and the “Radioactivity, With DES” value (Rat Uterine Receptor; Serum, 5 μg DES, 6 hours) was 68 ± 6 count/min per 100 mg of tissue. For the same compound, the “Radioactivity, Without DES” value (Rat Uterine Receptor; Serum, 6 hours) was 69 ± 11 count/min per 100 mg of tissue, the “Radioactivity, With DES” value (Rat Uterine Receptor; Thyroid, entire organ, 5 μg DES, 6 hours) was 2287 ± 805 count/min and the “Radioactivity, Without DES” value (Rat Uterine Receptor; Thyroid, entire organ, 6 hours) was 1839 ± 802 count/min. For the same compound, the “Radioactivity, With DES” value (Rat Uterine Receptor; Uterus, 5 μg DES 20 min before, 6 hours) was 73 ± 8 count/min per 100 mg of tissue, the “Radioactivity, Without DES” value (Rat Uterine Receptor; Uterus, castrated rats, 6 hours after s.c. injection) was 313 ± 150 count/min per 100 mg of tissue and the “radioactivity in the thyroid gland as share of injected dose” value (Rat Uterine Receptor; thyroid gland) was 0.2% of the injected dose. The “radioactivity in the thyroid gland” value (Rat Uterine Receptor; thyroid gland, probably free iodide) was “approximately 2000 count/min”, the “receptor concentration found with the ligand” value ([3]; mammary tumor pool no. 124) was 24 fmol/mg of protein and the “receptor concentration found with the ligand” value ([3]; mammary tumor pool no. 126) was 72 fmol/mg.
